Measurements: US20100160349A1, “TRIAZOLOPYRIMIDINE DERIVATIVES AS GLYCOGEN SYNTHASE KINASE 3 INHIBITORS” (priority 2005, published 2010)
Structures can show the parent of a compound that is named as a salt.

What was measured:
[1] = biological target: GSK3β (Homo sapiens, UniProt P49841); assay: GSK3beta assay (SPA, biotinylated phosphorylated CREB peptide, ATP-P33); format: biochemical; conditions: −log IC50 (M); reported as ranges; 5.7 ng/μl GSK3β, 1 μM ATP, room temperature, one hour; read-out: pIC50 (GSK3beta) (converted)
Chain of GSK3β (P49841 whole entry, species assumed): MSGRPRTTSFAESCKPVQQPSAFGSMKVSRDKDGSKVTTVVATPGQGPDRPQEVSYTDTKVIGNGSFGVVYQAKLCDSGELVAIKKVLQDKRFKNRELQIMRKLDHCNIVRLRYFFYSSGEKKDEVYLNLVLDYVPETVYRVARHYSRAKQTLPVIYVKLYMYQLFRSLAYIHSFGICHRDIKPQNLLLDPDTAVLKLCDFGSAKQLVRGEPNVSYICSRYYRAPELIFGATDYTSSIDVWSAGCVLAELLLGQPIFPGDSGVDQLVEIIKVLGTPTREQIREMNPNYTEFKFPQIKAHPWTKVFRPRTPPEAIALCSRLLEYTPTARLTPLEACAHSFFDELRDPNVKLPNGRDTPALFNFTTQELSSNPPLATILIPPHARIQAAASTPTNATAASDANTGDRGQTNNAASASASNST
Method: (§1) GSK3beta assays were performed at room temperature in a 100 μl reaction volume of 25 mM Tris (pH 7.4) containing 10 mM MgCl2.6H2O, 1 mM DTT, 0.1 mg/ml BSA, 5% glycerol and containing 5.7 ng/μl GSK3β, 5 μM biotinylated phosphorylated CREB peptide, 1 μM ATP, 0.85 μCi/ml ATP-P^33 and a suitable amount of a test compound of formula (I). After one hour, the reaction was terminated by adding 70 μl of Stop mix (0.1 mM ATP, 5 mg/ml streptavidin coated PVT SPA bead pH 11.0). The beads to which the phosphorylated CREB peptide is attached were allowed to settle overnight and the radioactivity of the beads was counted in a microtiterplate scintillation counter and compared with the results obtained in a control experiment (without the presence of a test compound) in order to determine the percentage of GSK3β inhibition. The IC50 value, i.e. the concentration (M) of the test compound at which 50% of GSK3β is inhibited, was calculated from the dose response curve obtained by performing the above-described GSK3β assay in the presence of different amounts of the test compound.

[2] = biological target: GSK3alpha (Homo sapiens, UniProt P49840); assay: GSK3alpha assay (same way as the GSK3beta assay); format: biochemical; conditions: −log IC50 (M); reported as ranges; 0.25 ng/μl GSK3alpha, 1 μM ATP, room temperature, one hour; read-out: pIC50 (GSK3alpha) (converted)
Chain of GSK3alpha (P49840 whole entry, species assumed): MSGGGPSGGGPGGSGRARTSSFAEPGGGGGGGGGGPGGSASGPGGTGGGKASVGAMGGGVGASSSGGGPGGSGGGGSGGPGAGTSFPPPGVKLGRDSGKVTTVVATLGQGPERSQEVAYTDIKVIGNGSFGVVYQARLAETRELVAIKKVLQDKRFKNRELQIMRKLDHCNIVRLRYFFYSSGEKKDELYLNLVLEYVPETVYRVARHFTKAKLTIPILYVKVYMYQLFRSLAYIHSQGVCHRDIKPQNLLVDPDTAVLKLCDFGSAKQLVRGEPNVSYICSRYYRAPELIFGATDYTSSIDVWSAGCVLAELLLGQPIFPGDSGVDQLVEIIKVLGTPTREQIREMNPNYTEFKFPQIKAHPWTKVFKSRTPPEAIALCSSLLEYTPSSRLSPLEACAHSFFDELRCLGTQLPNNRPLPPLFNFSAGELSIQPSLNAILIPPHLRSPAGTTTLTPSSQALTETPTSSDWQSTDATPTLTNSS
Method: as §1
The GSK3alpha assay was performed in the same way as described above for the GSK3beta assay except for the concentration of GSK3alpha which is 0.25 ng/μl.

Row | melting point [°C] | IC50 [1] [M] | IC50 [2] [M] | SMILES
1 | – | 1e-08 to 1e-07 | < 1e-08 | NCc1cccc(-n2nnc3cnc(Nc4ccccc4)nc32)c1 [Co. No. 9]
2 | – | < 1e-08 | < 1e-08 | OCCc1cccc(-n2nnc3cnc(Nc4ccccc4)nc32)c1 [Co. No. 10]
3 | – | < 1e-08 | < 1e-08 | COCc1cccc(-n2nnc3cnc(Nc4ccccc4)nc32)c1 [Co. No. 11]
4 | – | ≤ 1e-08 | < 1e-08 | CC(=O)NCc1cccc(-n2nnc3cnc(Nc4ccccc4)nc32)c1 [Co. No. 12]
5 | – | – | 1e-08 to 1e-07 | Fc1cccc(-n2nnc3cnc(Nc4ccccc4)nc32)c1 [Co. No. 13]
6 | – | – | > 1e-06 | O=C(NCc1cccc(-n2nnc3cnc(Nc4ccccc4)nc32)c1)C1CC1 [Co. No. 14]
7 | – | < 1e-08 | < 1e-08 | CCOC(=O)NCc1cccc(-n2nnc3cnc(Nc4ccccc4)nc32)c1 [Co. No. 15]
8 | – | 1e-08 to 1e-07 | 1e-08 to 1e-07 | OCCc1ccc(-n2nnc3cnc(Nc4ccccc4)nc32)cc1 [Co. No. 16]
9 | – | < 1e-08 | < 1e-08 | NC(=O)Cc1cccc(-n2nnc3cnc(Nc4ccccc4)nc32)c1 [Co. No. 17]

The remaining lines, values behind:

Row | SMILES | melting point [°C] | IC50 [1] [M] | IC50 [2] [M]
10 | NCc1cccc(-n2nnc3cnc(Nc4ccccc4)nc32)c1 (as salt: HCl) [Co. No. 9] | > 260 | – | –
11 | N#CCc1cccc(-n2nnc3cnc(Nc4ccccc4)nc32)c1 [Co. No. 1] | 218 to 222 | < 1e-08 | < 1e-08
12 | COCCOCc1cccc(-n2nnc3cnc(Nc4ccccc4)nc32)c1 [Co. No. 2] | 143 | < 1e-08 | < 1e-08
13 | COCCOc1cccc(-n2nnc3cnc(Nc4ccccc4)nc32)c1 [Co. No. 3] | 164 | 1e-08 to 1e-07 | < 1e-08
14 | c1ccc(Nc2ncc3nnn(-c4ccccc4)c3n2)cc1 [Co. No. 4] | 194 to 198 | 1e-08 to 1e-07 | 1e-08 to 1e-07
15 | CC(C)(C)OC(=O)NCc1cccc(-n2nnc3cnc(Nc4ccccc4)nc32)c1 [Co. No. 5] | 196 to 198 | < 1e-08 | < 1e-08
16 | O=C(NCc1cccc(-n2nnc3cnc(Nc4ccccc4)nc32)c1)C12CC3CC(CC(C3)C1)C2 [Co. No. 6] | – | > 1e-07 | > 1e-07
17 | CC(C)CC(=O)NCc1cccc(-n2nnc3cnc(Nc4ccccc4)nc32)c1 [Co. No. 7] | – | < 1e-08 | < 1e-08
18 | O=C(O)Cc1cccc(-n2nnc3cnc(Nc4ccccc4)nc32)c1 [Co. No. 8] | 241 | > 1e-07 | 1e-08 to 1e-07
